The values that follow are results of earlier work, collected in patent publication US20250387497A1, “MULTIVALENT MULTISPECIFIC CONJUGATES AND RELATED COMPOSITIONS AND METHODS OF USE” (Purdue Research Foundation, priority 2022, published 2025).

One series addresses Her2 (Homo sapiens, UniProt P04626). Particulars: read-out: binding affinity for Her2.
A further series deals with EGFR (Homo sapiens, UniProt P00533). The conditions noted are these: read-out: binding affinity for EGFR.

Take FCGDGFYACYMDV [H]: the Kd at Her2 is 0.3 µM. For YHWYGYTPQNVI [E], the Kd at EGFR was 459 µM.
